Reference: US5756355A, “Lipid membrane sensors” (Ecole Polytechnique Federale de Lausanne, priority 1992, dated 1998)

Key:
5-HT3 receptor = target: T1, 5-HT3 receptor (Bos taurus, UniProt F1N4Y2); experiment: Current responses of gold-supported lipid bilayer sensor with incorporated 5-HT3 receptor during stimulation by agonists, without or with antagonist; type: biochemical, calf
T1 construct: from tissue; host or cells: calf brain, entorhinal cortex and hippocampus; detergent (OPG) solubilised and purified on 5-HT-agarose
T1 sequence (F1N4Y2 29-488): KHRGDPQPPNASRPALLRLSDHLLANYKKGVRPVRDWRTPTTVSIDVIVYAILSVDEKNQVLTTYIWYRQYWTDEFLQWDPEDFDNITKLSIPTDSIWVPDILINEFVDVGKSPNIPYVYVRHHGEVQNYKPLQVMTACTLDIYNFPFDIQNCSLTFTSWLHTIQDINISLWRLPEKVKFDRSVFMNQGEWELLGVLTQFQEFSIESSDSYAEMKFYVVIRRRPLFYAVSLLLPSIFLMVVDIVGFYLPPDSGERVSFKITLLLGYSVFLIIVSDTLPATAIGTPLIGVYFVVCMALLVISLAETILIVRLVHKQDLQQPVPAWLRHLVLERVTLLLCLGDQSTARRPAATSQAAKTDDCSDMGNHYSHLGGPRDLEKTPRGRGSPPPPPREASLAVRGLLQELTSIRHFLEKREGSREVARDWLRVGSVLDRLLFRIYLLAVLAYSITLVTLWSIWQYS
Experimental: A 1 mm^2 gold electrode was cleaned and inserted into the electrochemical cell as described in Example 5. First, 100 μl of the thiolipid/OPG solution (0.7 mM/48 mM in 0.1 M KCl) was added and the adsorption process followed as described in Example 6. After approximately 2 minutes, the solution was completely replaced. The sample was washed several times with 55 mM OGP in 0.1 M KCl.
A receptor-containing solution was prepared as follows: 2 mg (2.9 μmol) of DMPC, 2 mg (2.6 μmol) of POPC (i.e. an approximately 1:1 molar ratio of DMPC: POPC) and 2 mg ([…]) of OPG were ultrasonicated in 1 ml of 0.1 M KCl, until the solution became clear. This solution was mixed with 15 μg of the 5-HT3 receptor (1 mg/ml, in 40 mM OPG and complex buffer "A" as used in Example 4), 100 μl of the receptor-containing solution was placed in the cell. After about 2 minutes, the cell solution was diluted stepwise by the addition of small portions of 0.1 M KCl. Finally, the solution was completely replaced by 0.1 M KCl. The resulting layer was used for experiments within 5 hours at most, then being removed by washing with 55 mM OGP in 0.1 M KCl and formed again using the ice-cooled receptor solution.
50 μl portions of 5-HT solution "B" (20 μM 5-HT in 0.1 M KCl) were added successively to the layer with the incorporated receptor (still connected to the cell containing 500 μl of 0.1 M KCl). An interval of about 50 seconds was left between additions (the capacitive and the faradaic current reaching a constant value).
The construction of the receptor-containing system was performed as described above. Again, 500 μl of 0.1 M KCl was placed in the measurement cell but for stimulation, a solution "C" of 20 μM 1-phenylbiguanide, another agonist, in 0.1 M KCl was used.
The supported lipid bilayer, containing the 5-HT3 receptor, was formed as described in (ii). […] After each addition, the values of the capacitive and the faradaic currents were allowed to stabilize.
(§1) A large (geometrical area about 1 cm^2) AgCl-coated Ag wire served as the counter/reference electrode and was fixed at a defined distance from the working electrode. The impedance measurements were made using a two-channel lock-in amplifier (EG&G model 5206) at v=120 Hz, applying Uo =17.5 mV RMS to the electrochemical cell. The real and imaginary parts of the impedance were obtained from the currents in phase (faradaic component Ifarad) and 90° out of phase (capacitive component Icap) with the applied voltage, respectively. These currents were measured on a 1 k.OMEGA. resistor in series with the electrodes.
(§2) The impedance and capacitance of the membrane layers on the gold electrodes were determined from the two current components, Ifarad and Icap, using a simplified model for the electrical behaviour of the membrane with the membrane resistance R=Uo /Ifarad in parallel to the membrane capacitance C=Icap /(2πvUo).

[1] = Current responses of the lipid bilayer without receptor (pure lipid layer); conditions: for alterations of the electrical properties of the lipid layer without receptor: same concentration range as with receptor; for Icap current response / Ifarad current response: pure lipid layer without receptor
Experimental: For comparison, a corresponding lipid bilayer without the receptor protein was formed by completing the imperfect thiolipid monolayer on the gold electrode with the corresponding pure phospholipid/detergent solution.
The same experiment was performed using a lipid layer without receptor.
The same experiment was performed using the lipid bilayer without receptor.
as §1, with “The impedance measurements were made using a two-channel lock-in amplifier (EG&G model 5206) at v=120 Hz, applying Uo =17.5 mV RMS to the electrochemical cell.” left out
as §2

[2] = phenylbiguanide 1.82 μM, Experiment 1
[3] = phenylbiguanide 1.82 μM, Experiment 2
[4] = phenylbiguanide 3.33 μM, Experiment 1
[5] = phenylbiguanide 3.33 μM, Experiment 2
[6] = phenylbiguanide 4.62 μM, Experiment 1
[7] = phenylbiguanide 4.62 μM, Experiment 2
[8] = phenylbiguanide 5.71 μM, Experiment 1
[9] = phenylbiguanide 5.71 μM, Experiment 2
[10] = phenylbiguanide 6.67 μM, Experiment 1
[11] = phenylbiguanide 6.67 μM, Experiment 2
[12] = phenylbiguanide 7.50 μM, Experiment 1
[13] = phenylbiguanide 7.50 μM, Experiment 2
[14] = phenylbiguanide 8.89 μM, Experiment 1
[15] = phenylbiguanide 8.89 μM, Experiment 2
[16] = phenylbiguanide 11.67 μM, Experiment 1
[17] = phenylbiguanide 11.67 μM, Experiment 2
[18] = phenylbiguanide 12.86 μM, Experiment 1
[19] = phenylbiguanide 12.86 μM, Experiment 2
[20] = phenylbiguanide 14.74 μM, Experiment 1
[21] = phenylbiguanide 14.74 μM, Experiment 2
[22] = phenylbiguanide 10. μM, Experiment 1
[23] = phenylbiguanide 10. μM, Experiment 2

CN1C2CCC1CC(OC(=O)c1c[nH]c3ccccc13)C2 (stereo not drawn) [ICS 205-930]
5-HT concentration necessary for binding to the receptor, times higher than in the absence of the antagonist (5-HT3 receptor; in the presence of 10 nM ICS 205-930): about 40 times
alterations of the electrical properties of the lipid layer without receptor [1]: No alterations of the electrical properties of the lipid bilayer

NCCc1c[nH]c2ccc(O)cc12 [5-hydroxytryptamine]
alterations of the electrical properties of the lipid layer without receptor [1]: no alterations of the electrical properties of the pure lipid layer were observed

N=C(N)NC(=N)Nc1ccccc1 [1-phenylbiguanide]
Icap current response (5-HT3 receptor; [2]): 96.3 nA
Ifarad current response (5-HT3 receptor; [2]): 23.6 nA
Icap current response (5-HT3 receptor; [3]): 97.3 nA
Ifarad current response (5-HT3 receptor; [3]): 22.7 nA
Icap current response (5-HT3 receptor; [4]): 97.1 nA
Ifarad current response (5-HT3 receptor; [4]): 26.1 nA
Icap current response (5-HT3 receptor; [5]): 98.0 nA
Ifarad current response (5-HT3 receptor; [5]): 25.0 nA
Icap current response (5-HT3 receptor; [6]): 97.6 nA
Ifarad current response (5-HT3 receptor; [6]): 27.7 nA
Icap current response (5-HT3 receptor; [7]): 98.5 nA
Ifarad current response (5-HT3 receptor; [7]): 26.6 nA
Icap current response (5-HT3 receptor; [8]): 98 nA
Ifarad current response (5-HT3 receptor; [8]): 28.9 nA
Icap current response (5-HT3 receptor; [9]): 99.2 nA
Ifarad current response (5-HT3 receptor; [9]): 28.3 nA
Icap current response (5-HT3 receptor; [10]): 98.3 nA
Ifarad current response (5-HT3 receptor; [10]): 29.7 nA
Icap current response (5-HT3 receptor; [11]): 99.4 nA
Ifarad current response (5-HT3 receptor; [11]): 29.0 nA
Icap current response (5-HT3 receptor; [12]): 98.4 nA
Ifarad current response (5-HT3 receptor; [12]): 30.1 nA
Icap current response (5-HT3 receptor; [13]): 99.5 nA
Ifarad current response (5-HT3 receptor; [13]): 29.5 nA
Icap current response (5-HT3 receptor; [14]): 98.5 nA
Ifarad current response (5-HT3 receptor; [14]): 30.6 nA
Icap current response (5-HT3 receptor; [15]): 99.6 nA
Ifarad current response (5-HT3 receptor; [15]): 29.8 nA
Icap current response (5-HT3 receptor; [16]): 98.6 nA
Ifarad current response (5-HT3 receptor; [16]): 31.1 nA
Icap current response (5-HT3 receptor; [17]): 99.6 nA
Ifarad current response (5-HT3 receptor; [17]): 30.3 nA
Icap current response (5-HT3 receptor; [18]): 98.6 nA
Ifarad current response (5-HT3 receptor; [18]): 31.2 nA
Icap current response (5-HT3 receptor; [19]): 99.6 nA
Ifarad current response (5-HT3 receptor; [19]): 30.4 nA
Icap current response (5-HT3 receptor; [20]): 98.6 nA
Ifarad current response (5-HT3 receptor; [20]): 31.2 nA
Icap current response (5-HT3 receptor; [21]): 99.6 nA
Ifarad current response (5-HT3 receptor; [21]): 30.4 nA
Icap current response (5-HT3 receptor; [22]): 98.6 nA
Ifarad current response (5-HT3 receptor; [22]): 30.8 nA
Icap current response (5-HT3 receptor; [23]): 99.6 nA
Ifarad current response (5-HT3 receptor; [23]): 30.0 nA
Icap current response ([1]; 1-phenylbiguanide 7.5 μM): 96.5 nA
Ifarad current response ([1]; 1-phenylbiguanide 7.5 μM): 20.9 nA
Icap current response ([1]; 1-phenylbiguanide 14.74 μM): 96.4 nA
Ifarad current response ([1]; 1-phenylbiguanide 14.74 μM): 20.7 nA
